Source: PubChem BioAssay (NCI)
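Assay format: 96-well plates, 48-hour exposure. Abbreviation: GI50, concentration required for 50% inhibition of growth. At the TGI there is no net growth.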

What was measured:
Test in all cases: inhibition of tumour cell growth, NCI panel, 48 h
HT29 colon = system: HT29 colon
UACC-257 melanoma = system: UACC-257 melanoma
HCC-2998 colon = system: HCC-2998 colon
U251 CNS = system: U251 CNS
A498 renal = system: A498 renal
SF-539 CNS = system: SF-539 CNS
A549 NSCLC = system: A549 NSCLC
SF-295 CNS = system: SF-295 CNS
HL-60(TB) leukemia = system: HL-60(TB) leukemia
CAKI-1 renal = system: CAKI-1 renal

Nc1nc(Nc2ccc(OCc3cccc(F)c3)cc2)c2c(n1)[nH]c1ccc(O)cc12
GI50 (HT29 colon): 2.13 µM | TGI (HT29 colon): 4.49 µM | GI50 (UACC-257 melanoma): 4.81 µM | TGI (UACC-257 melanoma): 22.2 µM | GI50 (HCC-2998 colon): 3.46 µM | TGI (HCC-2998 colon): 13.6 µM | GI50 (U251 CNS): 2.44 µM | TGI (U251 CNS): 6.09 µM | GI50 (A498 renal): 15.7 µM | TGI (A498 renal): 33.1 µM | GI50 (SF-539 CNS): 1.79 µM | TGI (SF-539 CNS): 3.31 µM | GI50 (A549 NSCLC): 4.13 µM | TGI (A549 NSCLC): 17.8 µM | GI50 (SF-295 CNS): 2.5 µM | TGI (SF-295 CNS): 7.63 µM | GI50 (HL-60(TB) leukemia): 2.01 µM | TGI (HL-60(TB) leukemia): 4.21 µM

O=c1c2cc3c(=O)n(CCc4ccccc4CO)c(=O)c3cc2c(=O)n1CCc1ccccc1CO
TGI (HT29 colon): > 100 µM | TGI (UACC-257 melanoma): > 100 µM | TGI (U251 CNS): > 100 µM | TGI (A498 renal): > 100 µM | TGI (SF-539 CNS): > 100 µM | TGI (A549 NSCLC): > 100 µM | TGI (SF-295 CNS): > 100 µM | TGI (HL-60(TB) leukemia): > 100 µM

c1ccc([P+](Cc2csnn2)(c2ccccc2)c2ccccc2)cc1
TGI (HT29 colon): > 100 µM | TGI (UACC-257 melanoma): > 100 µM | TGI (HCC-2998 colon): > 100 µM | TGI (U251 CNS): > 100 µM | TGI (A498 renal): > 100 µM | TGI (SF-539 CNS): > 100 µM | TGI (A549 NSCLC): > 100 µM | TGI (CAKI-1 renal): > 100 µM | TGI (SF-295 CNS): > 100 µM | TGI (HL-60(TB) leukemia): > 100 µM

CCOC(=O)c1csc(NC(=O)CCCC#N)n1
TGI (HT29 colon): > 100 µM | TGI (UACC-257 melanoma): > 100 µM | TGI (HCC-2998 colon): > 100 µM | TGI (U251 CNS): > 100 µM | TGI (A498 renal): > 100 µM | TGI (SF-539 CNS): > 100 µM | TGI (A549 NSCLC): > 100 µM | TGI (CAKI-1 renal): > 100 µM | TGI (SF-295 CNS): > 100 µM | TGI (HL-60(TB) leukemia): > 100 µM

CCOC(=O)C1=C(C)NC(=O)N([N+](=O)[O-])C1c1ccccc1C(F)(F)F (configuration not stated)
TGI (HT29 colon): > 100 µM | TGI (UACC-257 melanoma): > 100 µM | TGI (U251 CNS): > 100 µM | TGI (A498 renal): > 100 µM | TGI (SF-539 CNS): 71.9 µM | TGI (A549 NSCLC): > 100 µM | TGI (CAKI-1 renal): > 100 µM | TGI (SF-295 CNS): > 100 µM | TGI (HL-60(TB) leukemia): > 100 µM

Cc1cc(C)nc(NS(=O)(=O)c2ccc(Nc3c4ccccc4nc4c(C(=O)NCCO)cccc34)cc2)n1
TGI (HT29 colon): 38.3 µM | TGI (HCC-2998 colon): 27.8 µM | TGI (U251 CNS): > 100 µM | TGI (A498 renal): > 100 µM | TGI (A549 NSCLC): > 100 µM | TGI (CAKI-1 renal): 52.7 µM | TGI (SF-295 CNS): 53.5 µM | TGI (HL-60(TB) leukemia): > 100 µM

COc1ccc(CN2C(=O)C(=O)N(C)C2=O)c2ccccc12
TGI (HT29 colon): > 10 µM | TGI (HCC-2998 colon): > 10 µM | TGI (U251 CNS): > 10 µM | TGI (A498 renal): > 10 µM | TGI (SF-539 CNS): > 10 µM | TGI (A549 NSCLC): > 10 µM | TGI (CAKI-1 renal): > 10 µM | TGI (SF-295 CNS): > 10 µM | TGI (HL-60(TB) leukemia): > 10 µM

O=C(NN1C(=O)CSC1c1ccc(Cl)c(Cl)c1)c1ccncc1 (configuration not stated)
TGI (HT29 colon): > 100 µM | TGI (UACC-257 melanoma): > 100 µM | TGI (HCC-2998 colon): > 100 µM | TGI (U251 CNS): > 100 µM | TGI (A498 renal): > 100 µM | TGI (SF-539 CNS): > 100 µM | TGI (A549 NSCLC): > 100 µM | TGI (CAKI-1 renal): > 100 µM | TGI (SF-295 CNS): > 100 µM | TGI (HL-60(TB) leukemia): > 100 µM
